Converted amounts (≈) assume the structure as drawn. Read-outs that look alike come from different tables or passages of the source.
What was measured:
[1] = system: B. anthracis pathogenic strain (human isolate); assay: microbe, parasite or virus in culture; format: cell-based; conditions: Bacillus anthracis, 16 h, read-out: MIC B. anthracis Pathogenic
[2] = POPE LUVs, compound 50 µM
[3] = system: B. cereus ATCC 14579 strains resistant to known antibiotics; assay: microbe, parasite or virus in culture; format: cell-based, Bacillus cereus; conditions: Bacillus cereus, ATCC14579
B. cereus ATCC 14579 [4] = assay: microbe, parasite or virus in culture; format: cell-based, Bacillus cereus
E. coli K12 = assay: microbe, parasite or virus in culture; format: cell-based; conditions: Escherichia coli
[5] = system: B. cereus ATCC 14579 protoplasts; assay: microbe, parasite or virus in culture; format: cell-based; conditions: Bacillus cereus, ATCC14579
[6] = system: B. cereus ATCC 14579 mutant library; format: cell-based, Bacillus cereus
[7] = system: S. aureus ATCC 29213 protoplasts; assay: microbe, parasite or virus in culture; format: cell-based, Staphylococcus aureus; conditions: Staphylococcus aureus, ATCC29213
B. cereus ATCC 14579 [8] = assay: microbe, parasite or virus in culture; format: cell-based; conditions: Bacillus cereus, ATCC14579
[9] = system: B. anthracis Sterne strain; assay: microbe, parasite or virus in culture; format: cell-based; conditions: Bacillus anthracis, 16 h, read-out: MIC B. anthracis Sterne
B. cereus (ATCC 10876) = assay: microbe, parasite or virus in culture; format: cell-based; conditions: Bacillus cereus, ATCC10876, 16 h, read-out: MIC B. cereus
[10] = system: B. anthracis ovine strain (animal isolate); assay: microbe, parasite or virus in culture; format: cell-based; conditions: Bacillus anthracis, 16 h, read-out: MIC B. anthracis Ovine
E. coli K12 spheroplasts = assay: microbe, parasite or virus in culture; format: cell-based, Escherichia coli; conditions: Escherichia coli
E. faecalis (ATCC 29212) = assay: microbe, parasite or virus in culture; format: cell-based; conditions: Enterococcus faecalis, ATCC29212, 16 h, read-out: MIC E. faecalis
S. aureus ATCC 29213 = assay: microbe, parasite or virus in culture; format: cell-based; conditions: Staphylococcus aureus, ATCC29213
in vitro = conditions: human
[11] = system: B. subtilis 168 and knockout mutants; assay: microbe, parasite or virus in culture; format: cell-based; conditions: Bacillus subtilis
B. cereus ATCC 14579 [12] = assay: microbe, parasite or virus in culture; format: cell-based, Bacillus cereus; remark: listed apart in the source
[13] = POPC LUVs, compound 50 µM
[14] = system: B. cereus ATCC 14579 spores and vegetative cells; assay: microbe, parasite or virus in culture; format: cell-based; conditions: Bacillus cereus
[15] = course of the experiment (14 h)
[16] = B. subtilis 168, parental isogenic strain

Structure (SMILES): CCCCCCCCCCCCO[C@H]1C[C@H](O)[C@@H](O)[C@H](C)O1 [Compound 1]
- MIC [1]: 25 µM (≈ 7.91 µg/mL)
- time of leakage, τL [2]: about 160 min
- leakage of encapsulated carboxyfluorescein [2, 15]: ~ 100%
- MBC [3]: 16 µg/mL (≈ 50.6 µM)
- MIC [3]: 16 µg/mL (≈ 50.6 µM)
- 1000-fold reduction (T99.9) (B. cereus ATCC 14579 [4]): ≤ 60 min
- MBC (B. cereus ATCC 14579 [4]): 32 µg/mL (≈ 101 µM)
- MBC (B. cereus ATCC 14579 [4]; Bacillus cereus, ATCC14579): 16 µg/mL (≈ 50.6 µM)
- MIC (E. coli K12): 256 µg/mL (≈ 809 µM)
- MIC [5]: 16 µg/mL (≈ 50.6 µM)
- MIC of mutant library compared with the parental strain [6]: MIC values remain unchanged
- MIC [7]: 256 µg/mL (≈ 809 µM)
- MIC (B. cereus ATCC 14579 [8]): 16 µg/mL (≈ 50.6 µM)
- MIC [9]: 25 µM (≈ 7.91 µg/mL)
- MIC (B. cereus (ATCC 10876)): 25 µM (≈ 7.91 µg/mL)
- MIC [10]: 25 µM (≈ 7.91 µg/mL)
- MIC (E. coli K12 spheroplasts): 4 µg/mL (≈ 12.6 µM)
- MIC (E. faecalis (ATCC 29212)): 50 µM (≈ 15.8 µg/mL)
- MIC (S. aureus ATCC 29213): 256 µg/mL (≈ 809 µM)
- IC50 at 24 h (in vitro): 100 µM
- IC50 at 48 h (in vitro): > 50 µM
- MBC [11, 16]: 32 µg/mL (≈ 101 µM)
- MIC [11, 16]: 16 µg/mL (≈ 50.6 µM)
- MBC ([11]; B. subtilis ΔexpZ): 32 µg/mL (≈ 101 µM)
- MIC ([11]; B. subtilis ΔexpZ): 16 µg/mL (≈ 50.6 µM)
- MBC ([11]; B. subtilis ΔmtlA): 32 µg/mL (≈ 101 µM)
- MIC ([11]; B. subtilis ΔmtlA): 16 µg/mL (≈ 50.6 µM)
- MBC ([11]; B. subtilis ΔtreP): 16 µg/mL (≈ 50.6 µM)
- MIC ([11]; B. subtilis ΔtreP): 16 µg/mL (≈ 50.6 µM)
- MBC ([11]; B. subtilis ΔybbF): 16 µg/mL (≈ 50.6 µM)
- MIC ([11]; B. subtilis ΔybbF): 16 µg/mL (≈ 50.6 µM)
- MBC ([11]; B. subtilis ΔybdA): 32 µg/mL (≈ 101 µM)
- MIC ([11]; B. subtilis ΔybdA): 16 µg/mL (≈ 50.6 µM)
- MBC ([11]; B. subtilis ΔybdB): 32 µg/mL (≈ 101 µM)
- MIC ([11]; B. subtilis ΔybdB): 16 µg/mL (≈ 50.6 µM)
- MBC ([11]; B. subtilis ΔydhO): 32 µg/mL (≈ 101 µM)
- MIC ([11]; B. subtilis ΔydhO): 16 µg/mL (≈ 50.6 µM)
- MBC ([11]; B. subtilis ΔyfiB): 32 µg/mL (≈ 101 µM)
- MIC ([11]; B. subtilis ΔyfiB): 32 µg/mL (≈ 101 µM)
- MBC ([11]; B. subtilis ΔyfiC): 16 µg/mL (≈ 50.6 µM)
- MIC ([11]; B. subtilis ΔyfiC): 16 µg/mL (≈ 50.6 µM)
- MBC ([11]; B. subtilis ΔyfiM): 16 µg/mL (≈ 50.6 µM)
- MIC ([11]; B. subtilis ΔyfiM): 16 µg/mL (≈ 50.6 µM)
- MBC ([11]; B. subtilis ΔyfiN): 32 µg/mL (≈ 101 µM)
- MIC ([11]; B. subtilis ΔyfiN): 16 µg/mL (≈ 50.6 µM)
- MBC ([11]; B. subtilis ΔyflF): 32 µg/mL (≈ 101 µM)
- MIC ([11]; B. subtilis ΔyflF): 16 µg/mL (≈ 50.6 µM)
- MBC ([11]; B. subtilis ΔyfmR): 16 µg/mL (≈ 50.6 µM)
- MIC ([11]; B. subtilis ΔyfmR): 16 µg/mL (≈ 50.6 µM)
- MBC ([11]; B. subtilis ΔygaD): 16 µg/mL (≈ 50.6 µM)
- MIC ([11]; B. subtilis ΔygaD): 16 µg/mL (≈ 50.6 µM)
- MBC ([11]; B. subtilis ΔyhaQ): 16 µg/mL (≈ 50.6 µM)
- MIC ([11]; B. subtilis ΔyhaQ): 16 µg/mL (≈ 50.6 µM)
- MBC ([11]; B. subtilis ΔyhcJ): 16 µg/mL (≈ 50.6 µM)
- MIC ([11]; B. subtilis ΔyhcJ): 16 µg/mL (≈ 50.6 µM)
- MBC ([11]; B. subtilis ΔyheH): 32 µg/mL (≈ 101 µM)
- MIC ([11]; B. subtilis ΔyheH): 16 µg/mL (≈ 50.6 µM)
- MBC ([11]; B. subtilis ΔyjdD): 16 µg/mL (≈ 50.6 µM)
- MIC ([11]; B. subtilis ΔyjdD): 16 µg/mL (≈ 50.6 µM)
- MBC ([11]; B. subtilis ΔykfD): 16 µg/mL (≈ 50.6 µM)
- MIC ([11]; B. subtilis ΔykfD): 16 µg/mL (≈ 50.6 µM)
- MBC ([11]; B. subtilis ΔyknU): 32 µg/mL (≈ 101 µM)
- MIC ([11]; B. subtilis ΔyknU): 16 µg/mL (≈ 50.6 µM)
- MBC ([11]; B. subtilis ΔykoD): 16 µg/mL (≈ 50.6 µM)
- MIC ([11]; B. subtilis ΔykoD): 16 µg/mL (≈ 50.6 µM)
- MBC ([11]; B. subtilis ΔykpA): 32 µg/mL (≈ 101 µM)
- MIC ([11]; B. subtilis ΔykpA): 16 µg/mL (≈ 50.6 µM)
- MBC ([11]; B. subtilis ΔyvcC): 32 µg/mL (≈ 101 µM)
- MIC ([11]; B. subtilis ΔyvcC): 16 µg/mL (≈ 50.6 µM)
- MBC ([11]; B. subtilis ΔywbA): 32 µg/mL (≈ 101 µM)
- MIC ([11]; B. subtilis ΔywbA): 16 µg/mL (≈ 50.6 µM)
- MBC ([11]; B. subtilis ΔywhQ): 32 µg/mL (≈ 101 µM)
- MIC ([11]; B. subtilis ΔywhQ): 16 µg/mL (≈ 50.6 µM)
- MBC ([11]; B. subtilis ΔyxdM): 32 µg/mL (≈ 101 µM)
- MIC ([11]; B. subtilis ΔyxdM): 16 µg/mL (≈ 50.6 µM)
- MBC ([11]; B. subtilis ΔyybL): 32 µg/mL (≈ 101 µM)
- MIC ([11]; B. subtilis ΔyybL): 16 µg/mL (≈ 50.6 µM)
- MBC (B. cereus ATCC 14579 [12]): 32 µg/mL (≈ 101 µM)
- MBC (B. cereus ATCC 14579 [12]; Bacillus cereus, ATCC14579): 16 µg/mL (≈ 50.6 µM)
- MIC (B. cereus ATCC 14579 [12]; Bacillus cereus, ATCC14579): 16 µg/mL (≈ 50.6 µM)
- Lmax value obtained from the fit [13]: < 50%
- time of leakage, τL [13]: about 692 min
- total membrane leakage [13, 15]: ~ 30%
- MBC ([14]; ATCC14579, 20 min): 8 µg/mL (≈ 25.3 µM)
- MBC ([14]; ATCC14579, 0.5 h): 8 µg/mL (≈ 25.3 µM)
